Measurements as given in publication PMC7006505, “Chemical biology tools for probing transcytosis at the blood–brain barrier” (Chemical Science, 2019).

What was measured:
[1] = target: T1, extracellular subunit of TfR recombinant human protein, N-His Tag (Homo sapiens, UniProt P02786); assay: TfR binding ELISA (FAM-labelled shuttles on TfR-coated plates); conditions: plates coated with 1 µg/ml TfR, 1 h at room temp in PBS, anti-FAM HRP antibody (streptavidin peroxidase for Tf-biotin), absorption 450 nm, read-out: apparent binding affinity (EC50) to TfR
T1 construct: extracellular subunit of TfR; purchased Life Technologies
Experimental: To evaluate functionality of the conjugated peptides, in vitro analyses were performed. TfR binding was assessed through an ELISA format, whereby FAM-conjugated shuttles were serially diluted and added to plates that were coated with TfR protein. FAM-labelled vehicles were detected by an anti-FAM HRP-conjugated antibody.
The procedure was performed at room temp on a shaking platform using PBS-Tween (0.05%) for the wash steps. Nickel coated clear 96-well plates (Pierce) was coated overnight with 1 µg/ml of the extracellular subunit of TfR recombinant human protein, N-His Tag (Life Technologies) in 0.5 M Carbonate buffer. The plates were washed (5 × 150 µL) and blocked for 1 h with PBS containing 1% BSA. 100 µL of the compound dilutions in PBS were transferred to the plate and incubated for 1 h at room temp, after which time the plates were washed (5 × 150 µL). A Goat anti-FAM peroxidase labelled antibody (Abcam, 1:100 000) was added to the wells and incubated for 30 min. Following 6 washes, 50 µL of TMB Substrate Solution (Sigma) was added per well and incubated for a further 30 min. After addition of 50 µL of 2 M sulphuric acid to each well , receptor complexes were detected by measuring absorption at 450 nm. The procedure for determining the binding affinity of biotin labelled Tf (Sigma) was similar except streptavidin peroxidas e (ThermoFisher Scientific) (1:20 000) was used to measure the Tf -receptor complex.
Imaging and Immunochemistry
Colocalis ation of delivery scaffolds with LAMP1 and Tf -A647 bEND.3 cells were seeded at a density of 1 x 10^4 cells/we ll in 8-well glass plates (ibidi ) coated with rat tail collagen. After 3 days at 100 % confluence, cells were washed with PBS (3 × 180 µL), and co-incubated with brain delivery scaffolds (5 µM) and Tf-A647 (50 µg/ml) at 37 °C for 2 h in FluoroBrite DMEM media (Thermofisher). Cells were washed with PBS (3 × 180 µL), then fixed with 4 % paraformaldehyde for 15 min at room temperature. […]

TfR = conditions: micromolar affinity; read-out: affinity towards the receptor (TfR); cited from earlier work
Text: To enable targeted brain delivery, we chose to functionalise our scaffold with established ligands that engage the transferrin receptor (TfR) and low-density lipoprotein-receptor related protein (LRP1). The relative abundance of these receptors on brain endothelial, alongside their high transport capacity, made them ideal targets for RMT mediated delivery and both have been actively explored in research.[8],[14]–[16]

T1 sequence (P02786 89-760 limits assumed): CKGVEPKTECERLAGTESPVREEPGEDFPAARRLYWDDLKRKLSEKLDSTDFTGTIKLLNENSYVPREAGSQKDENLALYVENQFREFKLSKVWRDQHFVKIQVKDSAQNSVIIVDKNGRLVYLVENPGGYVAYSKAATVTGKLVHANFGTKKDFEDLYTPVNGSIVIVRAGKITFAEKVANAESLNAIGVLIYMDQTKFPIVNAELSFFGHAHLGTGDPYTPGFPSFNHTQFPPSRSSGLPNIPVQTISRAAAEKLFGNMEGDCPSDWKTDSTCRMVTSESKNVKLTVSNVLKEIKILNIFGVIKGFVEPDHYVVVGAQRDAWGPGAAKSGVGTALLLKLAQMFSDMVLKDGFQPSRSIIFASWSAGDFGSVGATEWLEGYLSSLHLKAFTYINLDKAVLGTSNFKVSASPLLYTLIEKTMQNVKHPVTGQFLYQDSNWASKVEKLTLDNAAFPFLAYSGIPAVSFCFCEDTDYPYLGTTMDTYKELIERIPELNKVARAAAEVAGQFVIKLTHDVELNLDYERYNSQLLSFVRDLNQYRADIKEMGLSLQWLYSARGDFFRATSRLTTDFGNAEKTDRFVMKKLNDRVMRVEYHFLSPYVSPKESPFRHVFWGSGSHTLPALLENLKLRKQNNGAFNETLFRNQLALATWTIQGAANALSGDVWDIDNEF

EC50 [1] [nM] | Compound | Kd (TfR) [nM]
11.8 ± 1.11 | CC[C@H](C)[C@H](NC(=O)[C@H](C)NC(=O)[C@H](Cc1c[nH]cn1)NC(=O)[C@@H](N)CCCCn1cc(C[C@H](NC(=O)[C@H](CCCNC(=N)N)NC(=O)[C@@H](NC(=O)[C@@H]2CCCN2C(=O)[C@@H]2CCCN2C(=O)[C@@H]2CCCN2C(=O)[C@H](CC(C)C)NC(=O)[C@H](CCCNC(=N)N)NC(=O)[C@@H](NC(=O)[C@@H]2CCCN2C(=O)[C@@H]2CCCN2C(=O)[C@@H]2CCCN2C(=O)[C@H](Cc2cn(CCCC[C@H](N)C(=O)N[C@@H](Cc3c[nH]cn3)C(=O)N[C@@H](C)C(=O)N[C@H](C(=O)N[C@@H](Cc3ccc(O)cc3)C(=O)N3CCC[C@H]3C(=O)N[C@@H](CCCNC(=N)N)C(=O)N[C@@H](Cc3c[nH]cn3)C(N)=O)[C@@H](C)CC)nn2)NC(=O)[C@H](CCCNC(=N)N)NC(=O)[C@@H](NC(=O)c2ccc3c(c2)C(=O)OC32c3ccc(O)cc3Oc3cc(O)ccc32)C(C)C)C(C)C)C(C)C)C(=O)N2CCC[C@H]2C(=O)N2CCC[C@H]2C(=O)N2CCC[C@H]2C(N)=O)nn1)C(=O)N[C@@H](Cc1ccc(O)cc1)C(=O)N1CCC[C@H]1C(=O)N[C@@H](CCCNC(=N)N)C(=O)N[C@@H](Cc1c[nH]cn1)C(N)=O [PPII(L3X;L15X)TfRL2] | –
12.7 ± 1.37 | CC[C@H](C)[C@H](NC(=O)[C@H](C)NC(=O)[C@H](Cc1c[nH]cn1)NC(=O)[C@@H](N)CCCCn1cc(C[C@H](NC(=O)[C@@H]2CCCN2C(=O)[C@@H]2CCCN2C(=O)[C@@H]2CCCN2C(=O)[C@H](CC(C)C)NC(=O)[C@H](CCCNC(=N)N)NC(=O)[C@@H](NC(=O)[C@@H]2CCCN2C(=O)[C@@H]2CCCN2C(=O)[C@@H]2CCCN2C(=O)[C@H](Cc2cn(CCCC[C@H](N)C(=O)N[C@@H](Cc3c[nH]cn3)C(=O)N[C@@H](C)C(=O)N[C@H](C(=O)N[C@@H](Cc3ccc(O)cc3)C(=O)N3CCC[C@H]3C(=O)N[C@@H](CCCNC(=N)N)C(=O)N[C@@H](Cc3c[nH]cn3)C(N)=O)[C@@H](C)CC)nn2)NC(=O)[C@H](CCCNC(=N)N)NC(=O)[C@@H](NC(=O)c2ccc3c(c2)C(=O)OC32c3ccc(O)cc3Oc3cc(O)ccc32)C(C)C)C(C)C)C(=O)N[C@@H](CCCNC(=N)N)C(=O)N[C@@H](CC(C)C)C(=O)N2CCC[C@H]2C(=O)N2CCC[C@H]2C(=O)N2CCC[C@H]2C(N)=O)nn1)C(=O)N[C@@H](Cc1ccc(O)cc1)C(=O)N1CCC[C@H]1C(=O)N[C@@H](CCCNC(=N)N)C(=O)N[C@@H](Cc1c[nH]cn1)C(N)=O [PPII(L3X;V13X)TfRL2] | –
– | HAIYPRH [TfRL2] | 440000

Compound | EC50 [1] [nM] | Kd (TfR) [nM]
Tf-biotin: biotin labelled transferrin (Sigma) [reference compound] | 20.9 ± 2.1 | –
